Several values for one entry are separate records, joined by “and”; a condition that tells them apart may be missing. Identical values can stand only once.
Tests used:
Type in all cases: cell-based, human
[1] = test system: PBMCs from LTBI donors (IFN-γ production); settings: individual MTB epitope peptide; one value per responding LTBI donor
[2] = test system: PBMCs depleted of CD4+ or CD8+ T cells; settings: phenotype of the responding T cells per donor; n.d. = assay not done
[3] = test system: CD4-purified cells from LTBI donors; settings: range over donors analyzed

Row | Sequence | SFC [1] | T cell phenotype [2] | effector memory T cells among tetramer+ cells [3] | naïve (CCR7+CD45RA+) among tetramer+ cells [3]
1 | FFGQNTAAIAATEAQ | 193.3 and 165.0 | CD4 |  | 
2 | FGQNTASIAATEAQY | 110.0 and 26.7 | CD4 |  | 
3 | FGQNTGAIAAAEARY | 108.3 and 276.7 | CD4 |  | 
4 | FGQNTSAIAAAEAQY | 161.7 and 176.7 | CD4 |  | 
5 | FVQALTTAAASYASV | 26.7 and 23.3 | undetectable |  | 
6 | GEEYLILSARDVLAV | 136.7 and 60.0 and 145.0 and 151.7 and 45.0 and 53.3 | CD4 (4×) and undetectable (2×) |  | 
7 | GINTIPIAINEAEYV | 120.0 and 201.7 and 20.0 and 118.3 | CD4 (2×) and undetectable |  | 
8 | GQNYTYKWETFLTRE | 26.7 and 66.7 and 50.0 (2×) and 33.3 | CD4 and undetectable (4×) |  | 
9 | GTVVLTATFALGAAL | 33.3 and 128.3 and 71.7 and 30.0 | CD4 (2×) and undetectable (2×) |  | 
10 | GWIISNIFGAIPVLG | 195.0 and 41.7 and 58.3 and 26.7 | CD4 and undetectable (3×) |  | 
11 | GWSSLGREYAAVAEE | 185.0 | CD4 |  | 
12 | ILPIAEMSVVAMEFG | 111.7 and 26.7 and 33.3 | CD4 and undetectable (2×) |  | 
13 | INLIIHYVDRPGALG | 31.7 | undetectable |  | 
14 | IQARAAALAFEQAYA | 23.3 and 33.3 | CD4 and undetectable |  | 
15 | IVQINGRHFDLRAQG | 26.7 | undetectable |  | 
16 | LAAAAAWDALAAELY | 170.0 and 78.3 and 411.7 | CD4 |  | 
17 | LALVGFLGGLITGIS | 65.0 (2×) and 36.7 and 25.0 | CD4 and undetectable (3×) |  | 

Row | Sequence | SFC [1] | T cell phenotype [2] | effector memory T cells among tetramer+ cells [3] | naïve (CCR7+CD45RA+) among tetramer+ cells [3]
18 | LAWLVQASANSAAMA | 25.0 | undetectable |  | 
19 | LGGLWTAVSPHLSPL | 38.3 and 25.0 | CD4 |  | 
20 | LLEFAVVLELAILSI | 26.7 | undetectable |  | 
21 | LSPISNMVSMANNHM | 70.0 and 115.0 and 43.3 and 28.3 | CD4 and undetectable (3×) |  | 
22 | MHVSFVMAYPEMLAA | 165.0 and 290.0 and 181.7 and 283.3 | CD4 |  | 
23 | MSFVTTQPEALAAAA | 121.7 | CD4 |  | 
24 | MSQIMYNYPAMMAHA (listed as Mycobacterium tuberculosis) [Rv0288/Rv3019c] |  |  | 4.8-17.2% | 9.8-37.1%
25 | PSPSMGRDIKVQFQS | 45.0 and 46.7 | undetectable |  | 
26 | QVPSASMGRDIKVQF | 53.3 and 48.3 | undetectable |  | 
27 | RGKVVLIDFWAYPCI | 35.0 | undetectable |  | 
28 | SARLRLLRDRLVEGV | 138.3 and 23.3 | CD4 and undetectable |  | 
29 | SSYAATEVANAAAAS | 60.0 | CD4 |  | 
30 | WFINWYLPISQLFYN | 40.0 | undetectable |  | 
31 | YAAALVAMPTLAELA | 25.0 | undetectable |  | 
32 | YASVEAANASPLQVA | 35.0 | undetectable |  | 
33 | YVAWMSATAALAREA | 150.0 and 83.3 and 58.3 and 25.0 | CD4 (3×) and undetectable |  | 

From patent US10703784B2, “Antigens and epitopes derived from Mycobacterium tuberculosis” (priority 2011, dated 2020)
